Results published in PMC4827351 (Chemical Science, 2015).
Entries after “also recorded” stand apart in the source; their conditions may differ.

Legend:
[1] = intestinal luminal aspirates obtained by endoscopy (ileal fluid); conditions: human
[2] = test system: TPCK-treated trypsin (Worthington); assay: 0.01 mg mL^–1 trypsin (1 : 100 trypsin : proHD6 (w/w)) in 100 mM Tris–HCl, 20 mM CaCl2, pH 8.0; conditions: room temperature, up to 120 min
[3] = biological target: the molecule itself; assay: AUC; sedimentation equilibrium; proHD6 30, 60 and 120 μM in 10 mM sodium phosphate pH 7.4, 30 000, 36 000 and 42 000 rpm, 20 °C, global fit with SEDPHAT; monomer to dimer

EPLQAEDDPLQAKAYEADAQEQRGANDQDFAVSFAEDASSSLRALGSTRAFTCHCRRSCYSTEYSYGTCTVMGINHRFCCL
cleaved bond [1]: Arg68-Ala69 | cleaved bond [2]: Arg68-Ala69, 1 min | fragment found [2]: EPLQAEDDPLQAK, 1 min; also recorded: GANDQDFAVSFAEDASSSLR, 1 min

AFTCHCRRSCYSTEYSYGTCTVMGINHRFCCL
not cleaved [2]: resistant to trypsin-catalyzed degradation

B1: proHD6 (81-residue propeptide of human α-defensin 6) (natural protein, UniProt Q01524 20-100, looked up)
chain: EPLQAEDDPLQAKAYEADAQEQRGANDQDFAVSFAEDASSSLRALGSTRAFTCHCRRSCYSTEYSYGTCTVMGINHRFCCL
notes: N-terminus EPLQ; Oxidatively folded regioisomer with the three native disulfide bonds (Cys4-Cys31, Cys6-Cys20, Cys10-Cys30, numbers count on mature HD6); Ulp1 cleavage leaves the native 81-residue peptide; also called HD6 propeptide; native proHD6; source: E. coli BL21(DE3) as His6-SUMO-proHD6, purified (Ni-NTA), Ulp1 digestion, reduction, oxidative folding, preparative HPLC; not shown: His6, …
stoichiometry N [3]: 2
